Measured values from patent US20230074545A1, “TREATMENT OF CANCER WITH CDK12/13 INHIBITORS” (Kinnate Biopharma Inc., priority 2019, published 2023).

Assays:
Assay in all cases: Radiometric kinase panel
Assay type in all cases: biochemical
ARK5 = biological target: T1, ARK5 (Homo sapiens, UniProt O60285)
T1 construct: either as full-length or enzymatically active fragments; purchased ProQinase GmbH (Reaction Biology); host or cells: Sf9 insect cells or E. coli (not specified per kinase)
Summary of the method: (§1)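 Activity was measured radiometrically from [gamma-33P]-ATP incorporation into substrate. The kinases were recombinant human GST- or His-tagged proteins, full-length or active fragments, expressed in Sf9 or E. coli. Compound in 10% DMSO was added before the enzyme/substrate mix, which started the reaction.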

AuroraB = biological target: T2, AuroraB (Homo sapiens, UniProt Q96GD4)
T2 construct: purchased ProQinase GmbH (Reaction Biology); host or cells: Sf9 insect cells or E. coli (not specified per kinase)
Summary of the method: as §1

BRAF = biological target: T3, BRAF (Homo sapiens, UniProt P15056)
T3 construct: purchased ProQinase GmbH (Reaction Biology)
Summary of the method: as §1

CDK2/CycA2 = biological target: T4, CDK2/CycA2 (Homo sapiens, UniProt P24941)
T4 construct: either as full-length or enzymatically active fragments; purchased ProQinase GmbH (Reaction Biology); host or cells: Sf9 insect cells or E. coli
Summary of the method: as §1

CDK3/CycC = biological target: T5, CDK3/CycC (Homo sapiens, UniProt Q00526)
T5 construct: purchased ProQinase GmbH (Reaction Biology); host or cells: Sf9 insect cells or E. coli (not specified per kinase)
Summary of the method: as §1

DDR2 = biological target: T6, DDR2 (Homo sapiens, UniProt Q16832)
T6 construct: either as full-length or enzymatically active fragments; purchased ProQinase GmbH (Reaction Biology)
Summary of the method: as §1

DYRK1B = biological target: T7, DYRK1B (Homo sapiens, UniProt Q9Y463)
T7 construct: either as full-length or enzymatically active fragments; purchased ProQinase GmbH (Reaction Biology)
Summary of the method: as §1

EPHB3 = biological target: T8, EPHB3 (Homo sapiens, UniProt P54753)
T8 construct: either as full-length or enzymatically active fragments; purchased ProQinase GmbH (Reaction Biology)
Summary of the method: as §1

HIPK3 = biological target: T9, HIPK3 (Homo sapiens, UniProt Q9H422)
T9 construct: either as full-length or enzymatically active fragments; purchased ProQinase GmbH (Reaction Biology)
Summary of the method: as §1

IKKepsilon = biological target: T10, IKKepsilon (Homo sapiens, UniProt Q14164)
T10 construct: either as full-length or enzymatically active fragments; purchased ProQinase GmbH (Reaction Biology)
Summary of the method: as §1

IRAK1 = biological target: T11, IRAK1 (Homo sapiens, UniProt P51617)
T11 construct: either as full-length or enzymatically active fragments; purchased ProQinase GmbH (Reaction Biology)
Summary of the method: as §1

LIMK1 = biological target: T12, LIMK1 (Homo sapiens, UniProt P53667)
T12 construct: either as full-length or enzymatically active fragments; purchased ProQinase GmbH (Reaction Biology)
Summary of the method: as §1

LRRK2 = biological target: T13, LRRK2 (Homo sapiens, UniProt Q5S007)
T13 construct: either as full-length or enzymatically active fragments; purchased ProQinase GmbH (Reaction Biology); host or cells: Sf9 insect cells or E. coli
Summary of the method: as §1

MAP3K7/MAP3K7IP1 = biological target: T14, MAP3K7/MAP3K7IP1 (Homo sapiens, UniProt O43318)
T14 construct: either as full-length or enzymatically active fragments; purchased ProQinase GmbH (Reaction Biology)
Summary of the method: as §1

MARK2 = biological target: T15, MARK2 (Homo sapiens, UniProt Q7KZI7)
T15 construct: either as full-length or enzymatically active fragments; purchased ProQinase GmbH (Reaction Biology)
Summary of the method: as §1

MARK4 = biological target: T16, MARK4 (Homo sapiens, UniProt Q96L34)
T16 construct: purchased ProQinase GmbH (Reaction Biology)
Summary of the method: as §1

MST4 = biological target: T17, MST4 (Homo sapiens, UniProt Q9P289)
T17 construct: either as full-length or enzymatically active fragments; purchased ProQinase GmbH (Reaction Biology)
Summary of the method: as §1

MYLK = biological target: T18, MYLK (Homo sapiens, UniProt Q15746)
T18 construct: either as full-length or enzymatically active fragments; purchased ProQinase GmbH (Reaction Biology)
Summary of the method: as §1

PAK2 = biological target: T19, PAK2 (Homo sapiens, UniProt Q13177)
T19 construct: either as full-length or enzymatically active fragments; purchased ProQinase GmbH (Reaction Biology)
Summary of the method: as §1

PHKG1 = biological target: T20, PHKG1 (Homo sapiens, UniProt Q16816)
T20 construct: either as full-length or enzymatically active fragments; purchased ProQinase GmbH (Reaction Biology)
Summary of the method: as §1

PHKG2 = biological target: T21, PHKG2 (Homo sapiens, UniProt P15735)
T21 construct: either as full-length or enzymatically active fragments; purchased ProQinase GmbH (Reaction Biology)
Summary of the method: as §1

PKCepsilon = biological target: T22, PKCepsilon (Homo sapiens, UniProt Q02156)
T22 construct: either as full-length or enzymatically active fragments; purchased ProQinase GmbH (Reaction Biology); host or cells: Sf9 insect cells or E. coli
Summary of the method: as §1

RPS6KA2 = biological target: T23, RPS6KA2 (Homo sapiens, UniProt Q15349)
T23 construct: either as full-length or enzymatically active fragments; purchased ProQinase GmbH (Reaction Biology); host or cells: Sf9 insect cells or E. coli
Summary of the method: as §1

RPS6KA6 = biological target: T24, RPS6KA6 (Homo sapiens, UniProt Q9UK32)
T24 construct: purchased ProQinase GmbH (Reaction Biology)
Summary of the method: as §1

S6Kbeta = biological target: T25, S6Kbeta (Homo sapiens, UniProt Q9UBS0)
T25 construct: purchased ProQinase GmbH (Reaction Biology); host or cells: Sf9 insect cells or E. coli (not specified per kinase)
Summary of the method: as §1

STK33 = biological target: T26, STK33 (Homo sapiens, UniProt Q9BYT3)
T26 construct: either as full-length or enzymatically active fragments; purchased ProQinase GmbH (Reaction Biology)
Summary of the method: as §1

TEC = biological target: T27, TEC (Homo sapiens, UniProt P42680)
T27 construct: either as full-length or enzymatically active fragments; purchased ProQinase GmbH (Reaction Biology)
Summary of the method: as §1

TSF1 = biological target: T28, TSF1 (Homo sapiens, UniProt O75716)
T28 construct: either as full-length or enzymatically active fragments; purchased ProQinase GmbH (Reaction Biology)
Summary of the method: as §1

p38beta = biological target: T29, p38beta (Homo sapiens, UniProt Q15759)
T29 construct: either as full-length or enzymatically active fragments; purchased ProQinase GmbH (Reaction Biology); host or cells: Sf9 insect cells or E. coli (not specified per kinase)
Summary of the method: as §1

p38delta = biological target: T30, p38delta (Homo sapiens, UniProt O15264)
T30 construct: either as full-length or enzymatically active fragments; purchased ProQinase GmbH (Reaction Biology)
Summary of the method: as §1

T21 sequence (P15735 whole entry, the tested form may be a part): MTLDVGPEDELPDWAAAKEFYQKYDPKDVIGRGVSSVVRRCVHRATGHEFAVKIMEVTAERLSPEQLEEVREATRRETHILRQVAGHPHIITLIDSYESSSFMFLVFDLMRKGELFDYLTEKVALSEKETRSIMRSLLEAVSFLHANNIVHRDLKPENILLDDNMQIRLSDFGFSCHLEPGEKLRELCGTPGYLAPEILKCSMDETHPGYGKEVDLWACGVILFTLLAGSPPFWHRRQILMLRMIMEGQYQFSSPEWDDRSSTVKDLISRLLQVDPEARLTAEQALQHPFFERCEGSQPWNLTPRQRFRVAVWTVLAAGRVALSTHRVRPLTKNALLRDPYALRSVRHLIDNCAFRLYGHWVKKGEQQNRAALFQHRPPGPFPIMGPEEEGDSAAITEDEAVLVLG
T5 sequence (Q00526 whole entry): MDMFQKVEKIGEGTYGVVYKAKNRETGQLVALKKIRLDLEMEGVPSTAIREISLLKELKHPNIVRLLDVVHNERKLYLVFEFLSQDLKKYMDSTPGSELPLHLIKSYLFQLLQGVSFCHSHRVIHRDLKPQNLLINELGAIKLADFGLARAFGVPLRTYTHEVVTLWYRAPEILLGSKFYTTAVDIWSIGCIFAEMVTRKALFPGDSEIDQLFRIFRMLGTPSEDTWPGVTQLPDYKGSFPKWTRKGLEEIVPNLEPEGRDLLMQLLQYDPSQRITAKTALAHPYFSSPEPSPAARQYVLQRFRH
T5 sequence (P24863 whole entry partner): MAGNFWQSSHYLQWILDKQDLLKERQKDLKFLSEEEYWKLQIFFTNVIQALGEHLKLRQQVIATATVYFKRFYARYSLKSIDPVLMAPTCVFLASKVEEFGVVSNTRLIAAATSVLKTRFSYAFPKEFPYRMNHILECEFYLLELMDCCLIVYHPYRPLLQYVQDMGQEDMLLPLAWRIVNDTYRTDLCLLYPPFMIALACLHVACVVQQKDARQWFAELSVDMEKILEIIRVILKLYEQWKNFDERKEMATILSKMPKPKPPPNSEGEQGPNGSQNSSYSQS
T26 sequence (Q9BYT3 whole entry, the tested form may be a part): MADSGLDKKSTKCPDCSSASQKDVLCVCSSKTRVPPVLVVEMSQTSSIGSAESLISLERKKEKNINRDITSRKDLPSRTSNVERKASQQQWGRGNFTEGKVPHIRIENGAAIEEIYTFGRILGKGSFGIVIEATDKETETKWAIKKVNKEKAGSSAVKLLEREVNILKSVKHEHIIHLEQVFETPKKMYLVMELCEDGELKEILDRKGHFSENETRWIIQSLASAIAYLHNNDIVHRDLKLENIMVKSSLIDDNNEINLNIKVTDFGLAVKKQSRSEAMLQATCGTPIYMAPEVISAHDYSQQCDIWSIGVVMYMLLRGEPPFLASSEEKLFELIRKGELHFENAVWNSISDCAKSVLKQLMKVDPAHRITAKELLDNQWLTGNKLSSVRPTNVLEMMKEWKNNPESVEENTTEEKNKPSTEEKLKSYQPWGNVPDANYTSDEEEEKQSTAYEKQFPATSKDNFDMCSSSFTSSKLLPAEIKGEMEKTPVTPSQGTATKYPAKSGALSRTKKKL
T25 sequence (Q9UBS0 whole entry): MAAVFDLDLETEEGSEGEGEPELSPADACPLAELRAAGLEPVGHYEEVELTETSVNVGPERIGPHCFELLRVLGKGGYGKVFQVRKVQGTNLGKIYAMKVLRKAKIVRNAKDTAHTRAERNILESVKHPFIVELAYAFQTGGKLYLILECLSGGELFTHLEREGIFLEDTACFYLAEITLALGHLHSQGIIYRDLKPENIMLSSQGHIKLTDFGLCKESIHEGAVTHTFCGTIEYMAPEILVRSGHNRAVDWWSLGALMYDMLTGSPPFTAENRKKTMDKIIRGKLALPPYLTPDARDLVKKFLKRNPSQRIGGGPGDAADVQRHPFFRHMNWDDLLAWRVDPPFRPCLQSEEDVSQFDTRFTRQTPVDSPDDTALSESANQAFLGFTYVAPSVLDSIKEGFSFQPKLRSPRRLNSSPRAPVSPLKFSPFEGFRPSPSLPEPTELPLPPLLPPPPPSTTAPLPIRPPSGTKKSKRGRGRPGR
T13 sequence (Q5S007 whole entry, the tested form may be a part): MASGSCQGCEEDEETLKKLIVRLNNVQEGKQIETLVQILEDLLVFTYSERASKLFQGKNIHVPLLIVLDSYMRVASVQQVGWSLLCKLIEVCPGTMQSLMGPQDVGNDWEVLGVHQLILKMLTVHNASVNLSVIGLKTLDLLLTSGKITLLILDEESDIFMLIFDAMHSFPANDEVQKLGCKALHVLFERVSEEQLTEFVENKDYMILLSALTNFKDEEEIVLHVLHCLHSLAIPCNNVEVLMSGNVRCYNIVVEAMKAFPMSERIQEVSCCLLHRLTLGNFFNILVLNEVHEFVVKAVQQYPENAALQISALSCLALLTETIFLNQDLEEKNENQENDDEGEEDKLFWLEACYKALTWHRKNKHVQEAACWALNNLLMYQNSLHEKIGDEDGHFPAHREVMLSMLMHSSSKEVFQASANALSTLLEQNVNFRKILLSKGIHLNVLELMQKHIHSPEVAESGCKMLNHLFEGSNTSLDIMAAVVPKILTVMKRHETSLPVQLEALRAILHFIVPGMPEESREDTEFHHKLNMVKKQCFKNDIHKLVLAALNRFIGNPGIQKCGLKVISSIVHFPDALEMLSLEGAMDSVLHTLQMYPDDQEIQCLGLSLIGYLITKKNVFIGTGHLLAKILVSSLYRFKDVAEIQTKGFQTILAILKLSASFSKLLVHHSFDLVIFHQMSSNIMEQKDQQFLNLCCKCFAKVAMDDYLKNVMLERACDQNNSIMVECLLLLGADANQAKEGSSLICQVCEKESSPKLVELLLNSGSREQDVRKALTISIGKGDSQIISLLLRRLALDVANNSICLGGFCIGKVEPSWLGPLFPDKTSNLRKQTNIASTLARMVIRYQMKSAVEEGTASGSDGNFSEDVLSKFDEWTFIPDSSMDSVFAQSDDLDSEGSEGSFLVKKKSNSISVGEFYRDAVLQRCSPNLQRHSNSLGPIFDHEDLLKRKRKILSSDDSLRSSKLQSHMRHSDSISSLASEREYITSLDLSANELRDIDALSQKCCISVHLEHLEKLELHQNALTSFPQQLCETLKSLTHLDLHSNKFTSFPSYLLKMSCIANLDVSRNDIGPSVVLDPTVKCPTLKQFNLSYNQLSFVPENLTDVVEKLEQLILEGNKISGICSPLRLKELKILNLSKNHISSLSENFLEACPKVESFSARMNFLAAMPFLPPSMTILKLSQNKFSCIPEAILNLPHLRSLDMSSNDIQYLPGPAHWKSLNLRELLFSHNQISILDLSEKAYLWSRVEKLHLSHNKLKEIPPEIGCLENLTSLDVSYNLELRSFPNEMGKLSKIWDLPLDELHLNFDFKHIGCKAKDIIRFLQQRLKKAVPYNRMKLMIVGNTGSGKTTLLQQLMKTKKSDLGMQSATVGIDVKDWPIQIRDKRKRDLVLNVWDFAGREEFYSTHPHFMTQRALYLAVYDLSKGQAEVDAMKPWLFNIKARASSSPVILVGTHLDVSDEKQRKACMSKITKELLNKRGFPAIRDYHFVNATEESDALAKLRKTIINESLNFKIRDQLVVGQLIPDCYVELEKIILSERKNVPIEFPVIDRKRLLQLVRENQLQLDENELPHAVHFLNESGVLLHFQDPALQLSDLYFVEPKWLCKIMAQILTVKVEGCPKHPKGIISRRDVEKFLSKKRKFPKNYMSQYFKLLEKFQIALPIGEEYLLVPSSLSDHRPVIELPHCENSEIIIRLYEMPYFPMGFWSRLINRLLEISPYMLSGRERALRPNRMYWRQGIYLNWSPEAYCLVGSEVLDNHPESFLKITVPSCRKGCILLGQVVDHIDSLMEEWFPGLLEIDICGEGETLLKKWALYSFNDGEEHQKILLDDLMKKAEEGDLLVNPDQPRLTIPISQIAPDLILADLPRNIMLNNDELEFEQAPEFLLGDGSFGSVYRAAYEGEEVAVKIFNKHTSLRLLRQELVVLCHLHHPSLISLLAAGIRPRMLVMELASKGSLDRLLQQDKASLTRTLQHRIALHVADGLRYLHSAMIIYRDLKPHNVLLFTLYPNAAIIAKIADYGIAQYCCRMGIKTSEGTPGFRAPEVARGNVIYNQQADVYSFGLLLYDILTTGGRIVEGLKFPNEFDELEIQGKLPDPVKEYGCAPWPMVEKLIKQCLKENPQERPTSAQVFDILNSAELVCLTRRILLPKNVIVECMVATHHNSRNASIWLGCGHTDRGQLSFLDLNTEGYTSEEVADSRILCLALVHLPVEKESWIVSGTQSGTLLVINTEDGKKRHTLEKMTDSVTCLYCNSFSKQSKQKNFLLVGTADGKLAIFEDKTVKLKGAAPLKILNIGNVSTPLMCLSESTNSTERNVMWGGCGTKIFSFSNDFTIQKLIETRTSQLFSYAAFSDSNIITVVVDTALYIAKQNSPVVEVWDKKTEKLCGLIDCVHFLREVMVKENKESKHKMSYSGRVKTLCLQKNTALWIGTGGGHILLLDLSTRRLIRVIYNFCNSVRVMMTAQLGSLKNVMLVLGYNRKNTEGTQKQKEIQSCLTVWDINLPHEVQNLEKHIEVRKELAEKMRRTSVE
T2 sequence (Q96GD4 whole entry): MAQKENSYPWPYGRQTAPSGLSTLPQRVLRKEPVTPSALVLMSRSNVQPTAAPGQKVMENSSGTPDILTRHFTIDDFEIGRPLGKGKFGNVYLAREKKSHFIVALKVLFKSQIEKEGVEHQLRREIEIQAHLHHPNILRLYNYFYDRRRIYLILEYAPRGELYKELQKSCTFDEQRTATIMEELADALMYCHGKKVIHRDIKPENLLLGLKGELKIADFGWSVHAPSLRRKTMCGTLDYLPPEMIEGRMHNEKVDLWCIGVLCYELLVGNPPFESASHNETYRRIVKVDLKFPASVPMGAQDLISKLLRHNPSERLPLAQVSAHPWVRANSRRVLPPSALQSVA

Compound: C=CC(=O)Nc1ccc(C(=O)N2CC[C@@H](Nc3ncc(C#N)cn3)C2)cc1 [Compound 4, (R)-N-(4-(3-((5-cyanopyrimidin-2-yl)amino)pyrrolidine-1-carbonyl)phenyl)acrylamide]
- inhibition at 1 µM (ARK5): 10%
- inhibition at 1 µM (AuroraB): 1%
- inhibition at 1 µM (BRAF): 0%
- inhibition at 1 µM (CDK2/CycA2): 15%
- inhibition at 1 µM (CDK3/CycC): 1%
- inhibition at 1 µM (DDR2): -9%
- inhibition at 1 µM (DYRK1B): 3%
- inhibition at 1 µM (EPHB3): 5%
- inhibition at 1 µM (HIPK3): -7%
- inhibition at 1 µM (IKKepsilon): 7%
- inhibition at 1 µM (IRAK1): 2%
- inhibition at 1 µM (LIMK1): 7%
- inhibition at 1 µM (LRRK2): -14%
- inhibition at 1 µM (MAP3K7/MAP3K7IP1): 2%
- inhibition at 1 µM (MARK2): 2%
- inhibition at 1 µM (MARK4): -1%
- inhibition at 1 µM (MST4): 6%
- inhibition at 1 µM (MYLK): 3%
- inhibition at 1 µM (PAK2): 16%
- inhibition at 1 µM (PHKG1): 18%
- inhibition at 1 µM (PHKG2): 2%
- inhibition at 1 µM (PKCepsilon): 15%
- inhibition at 1 µM (RPS6KA2): 12%
- inhibition at 1 µM (RPS6KA6): -3%
- inhibition at 1 µM (S6Kbeta): 1%
- inhibition at 1 µM (STK33): 5%
- inhibition at 1 µM (TEC): 5%
- inhibition at 1 µM (TSF1): 6%
- inhibition at 1 µM (p38beta): 8%
- inhibition at 1 µM (p38delta): 5%
